Source: ChEMBL document CHEMBL1143041, “On the cytotoxicity and status of oxidative stress of two novel synthesized tri-aza macrocyclic diamides as studied in the V79 cell lines” (Bioorg Med Chem, 2007)

What was measured:
V79 [1] = assay: Effect on catalase activity in V79 cells at 30 uM after 24 hrs; assay type: cell-based; details: Cricetulus griseus
V79 [2] = assay: Effect on dityrosine level in V79 cells at 30 uM after 24 hrs; assay type: functional, Cricetulus griseus
V79 [3] = assay: Effect on 8-hydroxy-deoxyguanosine level in V79 cells at 30 uM after 24 hrs; assay type: functional, Cricetulus griseus
V79 [4] = assay: Effect on superoxide dismutase activity in V79 cells at 30 uM after 24 hrs; assay type: cell-based; details: Cricetulus griseus
V79 [5] = assay: Effect on glutathione peroxidase activity in V79 cells at 30 uM after 24 hrs; assay type: cell-based; details: Cricetulus griseus
V79 [6] = assay: Effect on malondialdehyde level in V79 cells at 30 uM after 24 hrs; assay type: functional, Cricetulus griseus
V79 [7] = assay: Effect on V79 cells assessed as apoptotic cells at 4 mM in presence of 30 uM alpha-tocopherol; assay type: functional, Cricetulus griseus
V79 [8] = assay: Effect on dityrosine level in V79 cells at 4 mM after 24 hrs; assay type: functional, Cricetulus griseus
V79 [9] = assay: Effect on V79 cells assessed as viable cells at 2 mM in presence of 30 uM alpha-tocopherol; assay type: functional, Cricetulus griseus
V79 [10] = assay: Increase in glutathione peroxidase activity in V79 cells at 8 mM after 24 hrs; assay type: cell-based; details: Cricetulus griseus
V79 [11] = assay: Increase in glutathione peroxidase activity in V79 cells at 4 mM after 24 hrs; assay type: cell-based; details: Cricetulus griseus
V79 [12] = assay: Effect on dityrosine level in V79 cells at 1 mM after 24 hrs; assay type: functional, Cricetulus griseus
V79 [13] = assay: Increase in superoxide dismutase activity in V79 cells at 4 mM after 24 hrs; assay type: cell-based; details: Cricetulus griseus
V79 [14] = assay: Effect on malondialdehyde level in V79 cells at 8 mM after 24 hrs; assay type: functional, Cricetulus griseus
V79 [15] = assay: Effect on V79 cells assessed as apoptotic cells at 2 mM; assay type: functional, Cricetulus griseus
V79 [16] = assay: Effect on V79 cells assessed as viable cells at 2 mM; assay type: functional; details: Cricetulus griseus, read-out: Activity
V79 [17] = assay: Effect on 8-hydroxy-deoxyguanosine level in V79 cells at 8 mM after 24 hrs; assay type: functional, Cricetulus griseus
V79 [18] = assay: Effect on malondialdehyde level in V79 cells at 1 mM after 24 hrs; assay type: functional, Cricetulus griseus
V79 [19] = assay: Effect on dityrosine level in V79 cells at 2 mM after 24 hrs; assay type: functional, Cricetulus griseus
V79 [20] = assay: Increase in glutathione peroxidase activity in V79 cells at 1 mM after 24 hrs; assay type: cell-based; details: Cricetulus griseus
V79 [21] = assay: Effect on V79 cells assessed as apoptotic cells at 4 mM; assay type: functional, Cricetulus griseus
V79 [22] = assay: Effect on V79 cells assessed as necrotic cells at 4 mM; assay type: functional, Cricetulus griseus
V79 [23] = assay: Effect on 8-hydroxy-deoxyguanosine level in V79 cells at 4 mM after 24 hrs; assay type: functional, Cricetulus griseus
V79 [24] = assay: Effect on catalase activity in V79 cells at 8 mM after 24 hrs in presence of 30uM alpha-tocopherol; assay type: cell-based; details: Cricetulus griseus
V79 [25] = assay: Increase in catalase activity in V79 cells at 4 mM after 24 hrs; assay type: cell-based; details: Cricetulus griseus
V79 [26] = assay: Effect on 8-hydroxy-deoxyguanosine level in V79 cells at 1 mM after 24 hrs; assay type: functional, Cricetulus griseus
V79 [27] = assay: Stimulation of ROS generation in V79 cells; assay type: functional, cell-based; details: Cricetulus griseus
V79 [28] = assay: Effect on V79 cells assessed as apoptotic cells at 2 mM in presence of 30 uM alpha-tocopherol; assay type: functional, Cricetulus griseus
V79 [29] = assay: Effect on dityrosine level in V79 cells at 8 mM after 24 hrs in presence of 30 uM alpha-tocopherol; assay type: functional, Cricetulus griseus
V79 [30] = assay: Increase in catalase activity in V79 cells at 8 mM after 24 hrs; assay type: cell-based; details: Cricetulus griseus
V79 [31] = assay: Effect on glutathione peroxidase activity in V79 cells at 0.5 mM after 24 hrs; assay type: cell-based; details: Cricetulus griseus
V79 [32] = assay: Effect on V79 cells assessed as viable cells at 4 mM; assay type: functional; details: Cricetulus griseus, read-out: Activity
V79 [33] = assay: Effect on 8-hydroxy-deoxyguanosine level in V79 cells at 0.5 mM after 24 hrs; assay type: functional, Cricetulus griseus
V79 [34] = assay: Effect on malondialdehyde level in V79 cells at 0.5 mM after 24 hrs; assay type: functional, Cricetulus griseus
V79 [35] = assay: Effect on 8-hydroxy-deoxyguanosine level in V79 cells at 8 mM after 24 hrs in presence of 30 uM alpha-tocopherol; assay type: functional, Cricetulus griseus
V79 [36] = assay: Effect on V79 cells assessed as viable cells at 4 mM in presence of 30 uM alpha-tocopherol; assay type: functional, Cricetulus griseus
V79 [37] = assay: Effect on dityrosine level in V79 cells at 8 mM after 24 hrs; assay type: functional, Cricetulus griseus
V79 [38] = assay: Effect on catalase activity in V79 cells at 0.5 mM after 24 hrs; assay type: cell-based; details: Cricetulus griseus
V79 [39] = assay: Effect on dityrosine level in V79 cells at 0.5 mM after 24 hrs; assay type: functional, Cricetulus griseus
V79 [40] = assay: Increase in catalase activity in V79 cells at 1 mM after 24 hrs; assay type: cell-based; details: Cricetulus griseus
V79 [41] = assay: Effect on superoxide dismutase activity in V79 cells at 0.5 mM after 24 hrs; assay type: cell-based; details: Cricetulus griseus
V79 [42] = assay: Increase in superoxide dismutase activity in V79 cells at 1 mM after 24 hrs; assay type: cell-based; details: Cricetulus griseus
V79 [43] = assay: Effect on malondialdehyde level in V79 cells at 4 mM after 24 hrs; assay type: functional, Cricetulus griseus
V79 [44] = assay: Effect on malondialdehyde level in V79 cells at 2 mM after 24 hrs; assay type: functional, Cricetulus griseus
V79 [45] = assay: Effect on V79 cells assessed as necrotic cells at 2 mM; assay type: functional, Cricetulus griseus
V79 [46] = assay: Increase in superoxide dismutase activity in V79 cells at 8 mM after 24 hrs; assay type: cell-based; details: Cricetulus griseus
V79 [47] = assay: Increase in superoxide dismutase activity in V79 cells at 2 mM after 24 hrs; assay type: cell-based; details: Cricetulus griseus
V79 [48] = assay: Effect on superoxide dismutase activity in V79 cells at 8 mM after 24 hrs in presence of 30 uM alpha-tocopherol; assay type: cell-based; details: Cricetulus griseus
V79 [49] = assay: Effect on 8-hydroxy-deoxyguanosine level in V79 cells at 2 mM after 24 hrs; assay type: functional, Cricetulus griseus
V79 [50] = assay: Increase in glutathione peroxidase activity in V79 cells at 2 mM after 24 hrs; assay type: cell-based; details: Cricetulus griseus
V79 [51] = assay: Increase in catalase activity in V79 cells at 2 mM after 24 hrs; assay type: cell-based; details: Cricetulus griseus
V79 [52] = assay: Effect on glutathione peroxidase activity in V79 cells at 8 mM after 24 hrs in presence of 30 uM alpha-tocopherol; assay type: cell-based; details: Cricetulus griseus
V79 [53] = assay: Effect on malondialdehyde level in V79 cells at 8 mM after 24 hrs in presence of 30 uM alpha-tocopherol; assay type: functional, Cricetulus griseus
[54] = Cytotoxicity against V79 cells assessed as viability at 8 mM after 24 hrs by MTT assay; assay type: cell-based, Cricetulus griseus; details: chinese hamster, read-out: Activity

## Cc1c(C)c2c(c(C)c1O)CC[C@@](C)(CCC[C@H](C)CCC[C@H](C)CCCC(C)C)O2 [ALPHA-TOCOPHEROL]
V79 [1]
  Activity (microM/min/mg): 4.5
V79 [2]
  Activity: 0.42 nM/mg
V79 [3]
  Activity: 3.51
V79 [4]
  Activity: 13.2 U/mg
V79 [5]
  Activity: 14.1 nmol/min/mg
V79 [6]
  Activity: 7.51 nM/mg

## Cc1ccc2c(c1)Sc1cc(C)ccc1OCC(=O)NCCNCCNC(=O)CO2
V79 [7]
  Activity: 22.6%
V79 [8]
  Activity: 4.31 nM/mg
V79 [9]
  Activity: 80.5%
V79 [10]
  Activity: 47.6 nmol/min/mg
V79 [11]
  Activity: 37.5 nmol/min/mg
V79 [12]
  Activity: 1.19 nM/mg
V79 [13]
  Activity: 40.1 U/mg
V79 [14]
  Activity: 52.55 nM/mg
V79 [15]
  Activity: 25.1%
V79 [16]
  viability at 2000 µM: 71.4%
V79 [17]
  Activity: 6.9
V79 [18]
  Activity: 13.77 nM/mg
V79 [19]
  Activity: 2.45 nM/mg
V79 [20]
  Activity: 23.3 nmol/min/mg
V79 [21]
  Activity: 37.3%
V79 [22]
  Activity: 4.1%
V79 [23]
  Activity: 7.3
V79 [24]
  Activity (microM/min/mg): 8.77
V79 [25]
  Activity (microM/min/mg): 22.4
V79 [26]
  Activity: 5
V79 [27]
  Activity: Dose-dependent effect
V79 [28]
  Activity: 17.4%
V79 [29]
  Activity: 1.43 nM/mg
V79 [30]
  Activity (microM/min/mg): 27.2
V79 [31]
  Activity: 18.6 nmol/min/mg
V79 [32]
  viability at 4000 µM: 58.2%
V79 [33]
  Activity: 4.4
V79 [34]
  Activity: 11.17 nM/mg
V79 [35]
  Activity: 5.76
V79 [36]
  Activity: 69.1%
V79 [37]
  Activity: 8.27 nM/mg
V79 [38]
  Activity (microM/min/mg): 5.48
V79 [39]
  Activity: 0.74 nM/mg
V79 [40]
  Activity (microM/min/mg): 8.47
V79 [41]
  Activity: 18.8 U/mg
V79 [42]
  Activity: 21.3 U/mg
V79 [43]
  Activity: 35.691 nM/mg
V79 [44]
  Activity: 21.46 nM/mg
V79 [45]
  Activity: 2.6%
V79 [46]
  Activity: 49.2 U/mg
V79 [47]
  Activity: 31.2 U/mg
V79 [48]
  Activity: 21.8 U/mg
V79 [49]
  Activity: 5.8
V79 [50]
  Activity: 30.6 nmol/min/mg
V79 [51]
  Activity (microM/min/mg): 12.2
V79 [52]
  Activity: 20.8 nmol/min/mg
V79 [53]
  Activity: 15.01 nM/mg

## Cc1ccc2c(c1)[S+]([O-])c1cc(C)ccc1OCC(=O)NCCNCCNC(=O)CO2
V79 [7]
  Activity: 32.7%
V79 [8]
  Activity: 3.88 nM/mg
V79 [9]
  Activity: 71.2%
V79 [10]
  Activity: 41.1 nmol/min/mg
V79 [11]
  Activity: 33.4 nmol/min/mg
V79 [12]
  Activity: 0.75 nM/mg
V79 [13]
  Activity: 48.7 U/mg
V79 [14]
  Activity: 55.12 nM/mg
V79 [15]
  Activity: 40.2%
V79 [16]
  viability at 2000 µM: 54.4%
V79 [17]
  Activity: 9.1
V79 [18]
  Activity: 16.53 nM/mg
V79 [19]
  Activity: 1.61 nM/mg
V79 [20]
  Activity: 22.1 nmol/min/mg
V79 [21]
  Activity: 51.4%
V79 [22]
  Activity: 6.3%
V79 [23]
  Activity: 8.5
V79 [24]
  Activity (microM/min/mg): 10.2
V79 [25]
  Activity (microM/min/mg): 27.2
V79 [26]
  Activity: 5.5
V79 [27]
  Activity: Dose-dependent effect
V79 [28]
  Activity: 28.5%
V79 [29]
  Activity: 2.21 nM/mg
V79 [30]
  Activity (microM/min/mg): 35.7
V79 [31]
  Activity: 16.6 nmol/min/mg
V79 [32]
  viability at 4000 µM: 41.2%
V79 [33]
  Activity: 4.7
V79 [34]
  Activity: 8.72 nM/mg
V79 [35]
  Activity: 6.4
V79 [36]
  Activity: 52.6%
V79 [37]
  Activity: 6.41 nM/mg
V79 [38]
  Activity (microM/min/mg): 6.81
V79 [39]
  Activity: 0.54 nM/mg
V79 [40]
  Activity (microM/min/mg): 9.71
[54]
  viability at 24 h, 8000 µM: 24%
V79 [41]
  Activity: 14.4 U/mg
V79 [42]
  Activity: 22.1 U/mg
V79 [43]
  Activity: 36.63 nM/mg
V79 [44]
  Activity: 25.16 nM/mg
V79 [45]
  Activity: 4.6%
V79 [46]
  Activity: 56.4 U/mg
V79 [47]
  Activity: 36.4 U/mg
V79 [48]
  Activity: 23.5 U/mg
V79 [49]
  Activity: 7.4
V79 [50]
  Activity: 26.3 nmol/min/mg
V79 [51]
  Activity (microM/min/mg): 15.3
V79 [52]
  Activity: 22.4 nmol/min/mg
V79 [53]
  Activity: 17.63 nM/mg
